Assay results published in patent US20080033008A1, “COMPOSITIONS AND METHODS FOR TREATING, CONTROLLING, REDUCING, OR AMELIORATING INFECTIONS AND SEQUELAE THEREOF” (priority 2006, published 2008).
Values joined by “and” are separate entries in the source; they are usually repeats but may differ in a detail not shown here. Equal values may be shown once. “Also recorded” adds a separate entry of the source.

Legend:
[1] = Pupillary diameter measurement, rabbit paracentesis model; assay type: in vivo; settings: raw data per eye; for Diameter (mm) T2: −5 min: 5 min before the first paracentesis; for Diameter (mm) T3: +115 min: 5 min before the second paracentesis; for Diameter (mm) T1: −180 min: −180 min (basal)
Method: (§1) Each rabbit was placed in a restraint device and tagged with the alphanumeric code. The formulations were instilled (50 μl) into the conjunctival sac of both eyes 180, 120, 90 and 30 min before the first paracentesis; then 15, 30, 90 min after the first paracentesis. To perform the first paracentesis the animals were anaesthetized by intraveneous injection of 5 mg/kg Zoletil® (Virbac; 2.5 mg/kg tiletamine HCl and 2.5 mg/kg zolazepam HCl) and one drop of local anesthetic (Novesina®, Novartis) was administered to the eye. Anterior chamber paracentesis was performed with a 26 G needle attached to a tuberculin syringe; the needle was introduced into the anterior chamber through the cornea, taking care not to damage the tissues. Two hours after the first paracentesis, the animals were sacrificed with 0.4 ml Tanax® (Intervet International B.V.) and the second paracentesis was performed. About 100 μl of aqueous humor were removed at the second paracentesis. Aqueous humor was immediately split in four aliquots and stored at −80° C. until analysis. Then both eyes were enucleated and the iris-ciliary body was carefully excised, placed in polypropylene tubes, and stored at −80° C. until analysis.
The pupillary diameter of both eyes was measured with a Castroviejo caliper 180 min and 5 min before the first paracentesis and 5 min before the second paracentesis.

[2] = Clinical evaluation by slit lamp (clinical score), rabbit paracentesis model; assay type: in vivo
Method: as §1
The clinical evaluation of both eyes was performed by a slit lamp (4179-T; Sbisa, Italy) at 180 min and 5 min before the first paracentesis and 5 min before the second paracentesis. The clinical score was assigned according to the following scheme:
1=discrete dilatation of iris and conjunctival vessels
2=moderate dilatation of iris and conjunctival vessels
3=intense iridal hyperemia with flare in the anterior chamber
4=intense iridal hyperemia with flare in the anterior chamber and presence of fibrinous exudates.

[3] = Rabbit paracentesis model of ocular inflammation, overall conclusions; assay type: in vivo; settings: 0.1%, 0.5% and 1% topical formulations; preliminary conclusions; listed as BOL-303242-X
Description: Inflammatory processes are multidimensional in origin, and are characterized by complex cellular and molecular events involving numerous components all of which have not been identified. Prostaglandins are among these mediators and play an important role in certain forms of ocular inflammation. Paracentesis of the anterior chamber in the rabbit eye induces inflammatory reaction due to the disruption of the blood-aqueous barrier (“BAB”), which is mediated, at least in part, by prostaglandin E2 [References 1-3 below]. Intraocular or topical administration of PGE2 disrupts the BAB. [Reference 4, below] The treatment schedule adopted in this study was similar to the clinical NSAIDs (Ocufen) treatment schedule used by surgeons for patients before cataract surgery.
(§2) Each rabbit was placed in a restraint device and tagged with the alphanumeric code. The formulations were instilled (50 μl) into the conjunctival sac of both eyes 180, 120, 90 and 30 min before the first paracentesis; then 15, 30, 90 min after the first paracentesis. […]
Pupillary diameter, PGE2, protein, PMN, and MPO were expressed as mean ±SEM. […] Clinical score was expressed as % of eyes and the statistical analysis was performed using Kruskal-Wallis followed by a Dunn post hoc test. […]

Myeloperoxidase (MPO) = Myeloperoxidase (MPO) activity in iris-ciliary body, rabbit paracentesis model; assay type: in vivo; settings: iris-ciliary body samples collected after the second paracentesis, raw data per eye (DX/SX)
Method: 3.9 g of NaH2PO4 2H2O were dissolved in a volumetric flask to 500 ml with water. The pH was adjusted to pH=6 with 3N NaOH.
0.5 g of hexa-decyl-trimethyl-ammonium bromide was dissolved in 100 ml phosphate buffer.
The solution was prepared freshly. Ten microliters of H2O2 (30 wt. %) were diluted to 1 ml with water (solution A). 7.5 mg o-dianisidine 2HCl were dissolved in 45 ml of phosphate buffer and 75 μl of solution A were added.
as §2
The activity of MPO was measured as previously described by Williams et al. The iris-ciliary bodies were carefully dried, weighed and immersed in 1 ml of hexa-decyl-trimethyl-ammonium bromide solution. […] The change in absorbance at 460 nm was continuously monitored for 5 min by a spectrophotometer (UV/Vis Spectrometer Lambda EZ 201; Perkin Elmer). The slope of the line (Δ/min) was determined for each sample and used to calculate the number of units of MPO in the tissue as follows:
Values were expressed as units of MPO/g of tissue.

[4] = Very preliminary data (not shown) on side effects of corticosteroids
[5] = system: neovascularization and angiogenesis; settings: X. Xin et al., J. Biol. Chem. 274:9116-9121 (1999); cited from earlier work

SMILES	Diameter (mm) T2: −5 min ([1]; 0.5% topical)	Diameter (mm) T3: +115 min ([1]; 0.5% topical)	Diameter (mm) T1: −180 min ([1]; 0.5% topical)	Clinical score expressed as percentage of eyes, Score (%) 0 ([2]; 0.5% topical, −5 min) [%]	Clinical score expressed as percentage of eyes, Score (%) 0 ([2]; 0.5% topical, −180 min (basal)) [%]	Diameter (mm) T2: −5 min ([1]; 0.1% topical)	Diameter (mm) T3: +115 min ([1]; 0.1% topical)	Diameter (mm) T1: −180 min ([1]; 0.1% topical)	Clinical score expressed as percentage of eyes, Score (%) 3 ([2]; 0.1% topical, +115 min) [%]	Clinical score expressed as percentage of eyes, Score (%) 0 ([2]; 0.1% topical, −5 min) [%]	Clinical score expressed as percentage of eyes, Score (%) 0 ([2]; 0.1% topical, −180 min (basal)) [%]	also measured
CCOC(=O)O[C@]1(C(=O)OCCl)CC[C@H]2[C@@H]3CCC4=CC(=O)C=C[C@]4(C)[C@H]3[C@@H](O)C[C@@]21C [LE, loteprednol etabonate]	6.0 mm and 6.5 mm	4.5 mm and 5.0 mm and 5.5 mm and 6.0 mm	6.0 mm and 6.5 mm	100	100	–	–	–	–	–	–	Clinical score expressed as percentage of eyes, Score (%) 1 ([2]; 0.5% topical, +115 min): 75%; Clinical score expressed as percentage of eyes, Score (%) 2 ([2]; 0.5% topical, +115 min): 25%
Cc1ccc2c(NCC(O)(CC(C)(C)c3cc(F)cc4c3OCC4)C(F)(F)F)cccc2n1 (centres unmarked) [BOL]	8.0 mm and 7.0 mm and 7.5 mm	6.5 mm and 6.0 mm and 7.0 mm	8.0 mm and 7.0 mm and 7.5 mm	100	100	6.5 mm and 7.0 mm and 7.5 mm	5.0 mm and 6.0 mm and 6.5 mm and 5.5 mm	6.5 mm and 7.0 mm and 7.5 mm	25	100	100	Anti-inflammatory activity in the rabbit paracentesis model (conclusion) [3]: active in this model; also recorded: as effective an anti-inflammatory drug as some of the commonly accepted prior-art steroids or NSAID; MPO (Myeloperoxidase (MPO); 0.1% treatment): 1.00 Unit/g and 0.61 Unit/g and 0.65 Unit/g; MPO (Myeloperoxidase (MPO); 0.5% treatment): 0.85 Unit/g and 0.93 Unit/g and 0.79 Unit/g and 0.75 Unit/g and 0.74 Unit/g and 0.54 Unit/g and 0.58 Unit/g; Side effects of corticosteroids [4]: does not have some of the side effects of corticosteroids; Diameter (mm) T2: −5 min ([1]; 1% topical): 6.0 mm and 6.5 mm and 7.0 mm; Diameter (mm) T3: +115 min ([1]; 1% topical): 5.5 mm and 5.0 mm and 6.0 mm; Diameter (mm) T1: −180 min ([1]; 1% topical): 6.0 mm and 6.5 mm; Clinical score expressed as percentage of eyes, Score (%) 2 ([2]; 0.1% topical, +115 min): 75%; Clinical score expressed as percentage of eyes, Score (%) 2 ([2]; 1% topical, +115 min): 100%; Clinical score expressed as percentage of eyes, Score (%) 0 ([2]; 1% topical, −5 min): 100%; Clinical score expressed as percentage of eyes, Score (%) 0 ([2]; 1% topical, −180 min (basal)): 100%
C[C@@H]1C[C@H]2[C@@H]3CCC4=CC(=O)C=C[C@]4(C)[C@@]3(F)[C@@H](O)C[C@]2(C)[C@@]1(O)C(=O)CO [Dex, dexamethasone]	–	–	–	–	–	5.5 mm and 6.5 mm and 6.0 mm and 7.0 mm and 7.5 mm	5.5 mm and 6.0 mm and 4.5 mm and 5.0 mm and 6.5 mm	6.0 mm and 7.0 mm and 5.5 mm and 6.5 mm	25	75	100	Clinical score expressed as percentage of eyes, Score (%) 1 ([2]; 0.1% topical, +115 min): 75%; Clinical score expressed as percentage of eyes, Score (%) 1 ([2]; 0.1% topical, −5 min): 25%
CCCCCC=CC=C1C(=O)C=C[C@@H]1CC=CCCCC(=O)O [15-deoxy-Δ-12,14-prostaglandin J2]	–	–	–	–	–	–	–	–	–	–	–	Neovascularization and angiogenesis in the rat cornea [5]: inhibit neovascularization and angiogenesis
CC(C(=O)O)c1ccc(-c2ccccc2)c(F)c1 (centres unmarked) [F, flurbiprofen]	–	–	–	–	–	–	–	–	–	–	–	Diameter (mm) T2: −5 min ([1]; 0.03% topical): 6.0 mm and 6.5 mm and 7.0 mm and 5.5 mm; Diameter (mm) T3: +115 min ([1]; 0.03% topical): 4.0 mm and 3.5 mm and 5.5 mm and 5.0 mm and 4.5 mm and 6.0 mm; Diameter (mm) T1: −180 min ([1]; 0.03% topical): 5.0 mm and 7.0 mm and 6.0 mm and 5.5 mm; Clinical score expressed as percentage of eyes, Score (%) 2 ([2]; 0.03% topical, +115 min): 100%; Clinical score expressed as percentage of eyes, Score (%) 0 ([2]; 0.03% topical, −5 min): 100%; Clinical score expressed as percentage of eyes, Score (%) 0 ([2]; 0.03% topical, −180 min (basal)): 100%
